Data reported in PubChem BioAssay (NCI).
Values joined by “and” are separate entries in the source; they are usually repeats but may differ in a detail not shown here. Identical values can stand only once.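 Test compounds were applied to cells in 96-well plates for 48 hours at 5 doses. GI50: concentration for 50% inhibition of growth. TGI denotes the concentration required for complete inhibition of growth.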

Key:
Test in all cases: NCI-60 cell line screen, 48 h
NCI-H522 lung = tested on: NCI-H522 lung
SK-MEL-5 melanoma = tested on: SK-MEL-5 melanoma
786-0 renal = tested on: 786-0 renal
SW-620 colon = tested on: SW-620 colon
NCI-H460 lung = tested on: NCI-H460 lung
U251 CNS = tested on: U251 CNS
SK-OV-3 ovarian = tested on: SK-OV-3 ovarian
EKVX NSCLC = tested on: EKVX NSCLC
SK-MEL-28 melanoma = tested on: SK-MEL-28 melanoma
OVCAR-3 ovarian = tested on: OVCAR-3 ovarian

Compound | GI50 (NCI-H522 lung) [µM] | TGI (NCI-H522 lung) [µM] | GI50 (SK-MEL-5 melanoma) | TGI (SK-MEL-5 melanoma) [µM] | GI50 (786-0 renal) [µM] | TGI (786-0 renal) [µM] | GI50 (SW-620 colon) [µM] | TGI (SW-620 colon) [µM] | GI50 (NCI-H460 lung) | TGI (NCI-H460 lung) [µM] | GI50 (U251 CNS) [µM] | TGI (U251 CNS) [µM] | GI50 (SK-OV-3 ovarian) [µM] | TGI (SK-OV-3 ovarian) [µM] | GI50 (EKVX NSCLC) [µM] | TGI (EKVX NSCLC) [µM] | GI50 (SK-MEL-28 melanoma) [µM] | TGI (SK-MEL-28 melanoma) [µM] | GI50 (OVCAR-3 ovarian) | TGI (OVCAR-3 ovarian) [µM]
CC12CCC3C(CC=C4CC(O)CCC43C)C1C/C(=C\N1CCCC1)C2=O (centres undefined) | > 100 | > 100 | 64.5 µM | > 100 | > 100 | > 100 | > 100 | > 100 | > 100 µM | > 100 | > 100 | > 100 | > 100 | > 100 | 46.6 | > 100 | > 100 | > 100 | 42.6 µM | > 100
O=C(/C=C/c1cccnc1)NCCCCC1CCN(C(=O)c2ccccc2)CC1 | < 0.01 | > 100 | 35.3 µM and 21.8 µM | > 100 | > 100 | > 100 | < 0.01 | > 100 | 0.274 µM and 0.0767 µM | > 100 |  | > 100 | > 100 | > 100 | > 66.9 | > 100 | > 100 | > 100 | 48.5 µM and 6.22 µM | > 100
CCN1C2=NC(=O)N(C)C(=O)C2(Cl)C(C(SC)S(=O)(=O)c2ccc(C)cc2)c2ccccc21 (centres undefined) |  | 25.9 |  | > 100 |  | 52.9 |  | > 100 |  | > 100 |  | > 100 |  | > 100 |  | > 100 |  | 67.9 |  | 80.2
[N-]=[N+]=NC(c1cn(C2CC(O)C(CO)O2)c(=O)[nH]c1=O)C(Br)I (centres undefined) |  | > 100 |  | > 100 |  | > 100 |  | > 100 |  | > 100 |  | > 100 |  | > 100 |  | > 100 |  | > 100 |  | > 100
CC(=O)OC[C@H]1O[C@@H](n2ccc(=O)[nH]c2=O)[C@H](OC(C)=O)[C@@H]1OC(C)=O | > 100 | > 100 | > 100 µM | > 100 | > 100 | > 100 | > 100 | > 100 | > 100 µM | > 100 | > 100 | > 100 | > 100 | > 100 | > 100 | > 100 | > 100 | > 100 | > 100 µM | > 100
CC(=O)CCCCCCCCCCCC[C@@H]1CC[C@H](C)[C@H](O)N1 |  | > 100 |  | > 100 |  | > 100 |  | > 100 |  | > 100 |  | > 100 |  | > 100 |  | > 100 |  | > 100 |  | > 100
CCCCCCCCCCCCCCCCCC(=O)OCC(CN(C)CCN(C)C)OC(=O)CCCCCCCCCCCCCCCCC (centres undefined) |  | > 100 |  | > 100 |  | > 100 |  | > 100 |  | > 100 |  | > 100 |  | > 100 |  | > 100 |  | > 100 |  | > 100
Cc1cccc(C(C)(C)C)c1NC(=O)C(=O)C(C(=O)/C=C\c1ccccc1)C1OC(=O)c2ccccc21 (centres undefined) |  | > 100 |  | > 100 |  | > 100 |  | > 100 |  | > 100 |  | > 100 |  | > 100 |  | > 100 |  | > 100 |  | > 100
CN(C)CCCn1c2c(c3cnccc3c1=O)C(=O)c1ccccc1-2 | 0.312 | 7.24 | 0.363 µM | 1.48 | 0.361 | 13.6 | 0.209 | 10.9 | 0.39 µM | 1.75 | 0.425 | 11.4 | 1.96 | 28.7 | 2.33 | 16 | 0.508 | 2.59 | 1.1 µM | 5.47
O=C1C(Cl)C(c2cccc(O)c2)N1n1cnc2ccccc2c1=O (centres undefined) |  | > 100 |  | > 100 |  | > 100 |  | > 100 |  | > 100 |  | > 100 |  | > 100 |  | > 100 |  | > 100 |  | > 100
CCN(Cc1cccc(OC)c1)c1ccc(CO)c(Cl)c1 | 9.51 | 32.6 | 10.2 µM | 22.7 | 12.4 | 38.5 | 0.763 | > 100 | 0.272 µM | 14.1 | 0.88 | 19.9 | 8.52 | 33.6 | 19.9 | 71.3 | 14.7 | 35.8 | 0.477 µM | 4.34
CSc1nc2c(c(=O)[nH]1)N=C1c3ccccc3C(=O)C1C(c1ccc(F)cc1)N2 (centres undefined) | 3.17 | 37.9 | 6.13 µM | 66.6 | 12.4 | 27.3 | 4.48 | 70.7 | 5.1 µM | 38.7 | 5.43 | 19.3 | 14.1 | 50.4 | 18.2 | > 100 | 9.03 | 62.4 | 3.38 µM | 12.5
CC(C)(C)N1CCC1C(N)=O (centres undefined) | > 100 | > 100 | > 100 µM | > 100 | > 100 | > 100 | > 100 | > 100 | > 100 µM | > 100 | > 100 | > 100 | > 100 | > 100 | > 100 | > 100 | > 100 | > 100 | > 100 µM | > 100
O=c1c2ccccc2c2ccccc2c(=O)n1-c1cc2c3ccccc3ccc2c2ccccc12 |  | > 100 |  | > 100 |  | > 100 |  | > 100 |  | > 100 |  | > 100 |  | > 100 |  | > 100 |  | > 100 |  | > 100
N[C@@H](Cc1c[nH]c2ccccc12)C(=O)NC1CCN(C(=O)c2c[nH]c3ccccc23)CC1 | > 100 | > 100 | > 100 µM | > 100 | 78.1 | > 100 | > 100 | > 100 | 79.9 µM | > 100 | > 100 | > 100 | 90.5 | > 100 | > 100 | > 100 | > 100 | > 100 | > 100 µM | > 100
